Assay results: PubChem BioAssay (NCI)
Where “and” joins values, the source holds several entries; their conditions need not be identical. Equal entries are not always repeated.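 Protocol summary: plate cells (96-well), add compound at 5 concentrations, incubate 48 h, interpolate endpoints linearly. GI50 = concentration required for 50% inhibition of growth. TGI marks complete inhibition of growth.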

How the values were obtained:
Assay in all cases: NCI-60 cell line screen, 48 h
[1] = test system: RPMI-8226 leukemia
[2] = test system: U251 CNS
[3] = test system: HCT-116 colon
[4] = test system: NCI-H226 lung
[5] = test system: HCC-2998 colon
[6] = test system: UACC-257 melanoma
[7] = test system: M14 melanoma
[8] = test system: CAKI-1 renal
[9] = test system: SF-268 CNS
[10] = test system: MCF7 breast

Row | Compound | GI50 [1] | TGI [1] | GI50 [2] | TGI [2] | GI50 [3] | TGI [3] | GI50 [4] | TGI [4] | GI50 [5] | TGI [5] | GI50 [6] | TGI [6] | GI50 [7] | TGI [7] | GI50 [8] | TGI [8] | GI50 [9] | TGI [9] | GI50 [10] | TGI [10]
1 | COC(=O)c1cc2c(c(C(=O)OC)c1O)C(=O)C=CC2=O | 1.79 µM | > 9.1 µM and 5.6 µM | > 9.1 µM | > 55.8 µM | 3.49 µM | > 9.1 µM and 16.9 µM | 18.5 µM | > 9.1 µM and 34.7 µM | > 9.1 µM | > 57.4 µM | > 9.1 µM | > 48.7 µM | > 9.1 µM | > 66.9 µM | > 100 µM | > 100 µM | > 9.1 µM | > 55.2 µM | – | –
2 | COC(=O)C1=C(c2ccc3c(c2)OCO3)O[C@H](c2ccc3c(c2)OCO3)[C@H]1COC(C)=O | – | > 100 µM | – | > 100 µM | – | > 100 µM | – | > 100 µM | – | > 100 µM | – | > 100 µM | – | > 100 µM | – | > 100 µM | – | > 100 µM | – | –
3 | Cc1ccc(C(=O)/C=C/c2ccccc2O)c(C)c1 | – | > 100 µM | – | > 100 µM | – | > 100 µM | – | > 100 µM | – | > 100 µM | – | > 100 µM | – | > 100 µM | – | > 100 µM | – | > 100 µM | – | –
4 | CC(=O)c1ccc(NC(=O)/C(Cc2ccccn2)=N/NC(=O)C[N+](C)(C)C)cc1 | – | > 100 µM | – | > 100 µM | – | > 100 µM | – | > 100 µM | – | > 100 µM | – | > 100 µM | – | > 100 µM | – | > 100 µM | – | > 100 µM | – | –
5 | COc1cc(Cc2cc(OC)c(OC)c(OC)c2)ccc1O | – | > 100 µM | – | > 100 µM | – | > 100 µM | – | > 100 µM | – | > 100 µM | – | > 100 µM | – | > 100 µM | – | > 100 µM | – | > 100 µM | – | –
6 | N#CCCN(c1ccc(/C=C2\N=C(c3ccc(Cl)cc3)OC2=O)cc1)S(=O)(=O)c1ccccc1 | – | > 100 µM | – | > 100 µM | – | > 100 µM | – | > 100 µM | – | > 100 µM | – | > 100 µM | – | > 100 µM | – | > 100 µM | – | > 100 µM | – | –
7 | N#CCCN(CCC#N)c1ccc(/C=C2\N=C(CN3C(=O)c4ccccc4C3=O)OC2=O)cc1 | – | > 100 µM | – | > 100 µM | – | > 100 µM | – | > 100 µM | – | > 100 µM | – | > 100 µM | – | > 100 µM | – | > 100 µM | – | > 100 µM | – | –
8 | COC(=O)CSc1n[nH]c(-c2ccc(O)c([N+](=O)[O-])c2)n1 | – | > 100 µM | – | > 100 µM | – | > 100 µM | – | > 100 µM | – | > 100 µM | – | > 100 µM | – | > 100 µM | – | > 100 µM | – | > 100 µM | – | –
9 | COc1cc(C(=O)O[C@H](C(N)=O)[C@]2(C)CO2)c2ccccc2c1 | 22.8 µM | > 100 µM | 18.6 µM | 35.4 µM | 5.21 µM | 15.8 µM | 20.1 µM | 38.4 µM | – | – | 31.8 µM | > 100 µM | 15.1 µM | 40 µM | 20.6 µM | 39.8 µM | 14.2 µM | 36.7 µM | 27.3 µM | > 100 µM
10 | CC#CC(=O)Nc1ccccc1CC(c1c[nH]c2ccccc12)c1c[nH]c2ccccc12 | – | 58.1 µM | – | – | – | – | – | 32.6 µM | – | 32.7 µM | – | 57.4 µM | – | 29.7 µM | – | 58.9 µM | – | 59 µM | – | –
